Laboratory results from patent US9814238B2, “Herbicide composition” (ISHIHARA SANGYO KAISHA, LTD., priority 2013, dated 2017).

Columns and labels:
Assay type in all cases: in vivo
[1] = tested on: large crabgrass (Digitaria sanquinalis L.); experiment: Test Example 1: foliar treatment of large crabgrass in vat, visual growth inhibition rate; conditions: foliar treatment at 7-leaf stage, 24th day after treatment
Excerpt: (§1) When the herbicidal activity in a case where two active ingredients are combined, is larger than the simple sum of the respective herbicidal activities of the two active ingredients (the expected activity), it is called a synergistic effect. The activity expected by the combination of two active ingredients can be calculated as follows (Colby S. R., “Weed”, vol. 15, p. 20-22, 1967). E=α+β−(α×β÷100) where α: growth inhibition rate when treated with x (g/ha) of herbicide X,
(§2) β: growth inhibition rate when treated with y (g/ha) of herbicide Y,
(§3) E: growth inhibition rate expected when treated with x (g/ha) of herbicide X and y (g/ha) of herbicide Y.
(§4) That is, when the actual growth inhibition rate (measured value) is larger than the growth inhibition rate by the above calculation (calculated value), the activity by the combination can be regarded as showing a synergistic effect.
Upland field soil was put into a 1/1,000,000 ha vat, and seeds of large crabgrass (Digitaria sanquinalis L.) were sown. When the large crabgrass reached 7-leaf stage, predetermined amounts of an emulsifiable concentrate (EC formulation) containing tiafenacil prepared by a conventional method, water dispersible granules containing flazasulfuron as an active ingredient (WG formulation, tradename: SHIBAGEN DF manufactured by Ishihara Sangyo Kaisha, Ltd.), were diluted with water in an amount corresponding to 300 L/ha, and applied for foliar treatment by a small sprayer.
(§5) On the 24th day after treatment, the state of growth of the large crabgrass was visually observed to determine the growth inhibition rate in accordance with the following evaluation standard. The growth inhibition rate (%) (measured value) and the growth inhibition rate (%) (calculated value) calculated by the Colby's formula are shown in Table 1. Growth inhibition rate (%)=0 (equivalent to the non-treated area) to 100 (complete kill)

[2] = tested on: large crabgrass (Digitaria sanguinalis L.); experiment: Test Example 2: soil treatment of large crabgrass in pot, visual growth inhibition rate; conditions: soil treatment day after sowing, 14th day after treatment
Excerpt: as §1, §2, §3, §4
Upland field soil was put into a 1/500,000 ha pot, and seeds of large crabgrass (Digitaria sanguinalis L.) were sown. […]
as §5, with “14th” for “24th”, “same” for “following”, “standard as in Test Example 1.” for “standard.”, “2.” for “1. Growth inhibition rate (%)=0 (equivalent to the non-treated area) to 100 (complete kill)”

[3] = tested on: common dayflower (Commelina communis L.); experiment: Test Example 3: foliar treatment of common dayflower in orchard field, visual growth inhibition rate; conditions: foliar treatment at height 35 to 40 cm, 23rd day after treatment
Excerpt: as §1, §2, §3, §4
(§6) An orchard field was compartmentalized into 0.5 square meter per test section. When common dayflower (Commelina communis L.) which naturally grew thereafter reached a height of from 35 to 40 cm, predetermined amounts of a microemulsion (ME formulation) containing tiafenacil prepared by a conventional method and WG formulation containing flazasulfuron as an active ingredient (the same as in Test Example 1) were diluted with water (in an amount corresponding to 300 L/ha) containing 0.5 vol % of an agricultural adjuvant (tradename: Destiny HC, manufactured by Winfield Solutions LLC.) and applied for foliar treatment by a small sprayer.
(§7) On the 23rd day after treatment, the state of growth of the common dayflower was visually observed to determine the growth inhibition rate in accordance with the same evaluation standard as in Test Example 1. The growth inhibition rate (%) (measured value) and the growth inhibition rate (%) (calculated value) calculated by the Colby's formula are shown in Table 3.

[4] = tested on: large crabgrass (Digitaria sanguinalis L.); experiment: Test Example 4: foliar treatment of large crabgrass in orchard field, visual growth inhibition rate; conditions: foliar treatment at height 50 to 55 cm, 23rd day after treatment
Excerpt: as §1, §2, §3, §4
as §6, with “large crabgrass (Digitaria sanguinalis” for “common dayflower (Commelina communis”, “50” for “35”, “55” for “40”, “ME formulation” for “a microemulsion (ME formulation)”, “as an active ingredient (the same as in Test Example 3)” for “prepared by a conventional method”
as §7, with “4.” for “3.”

[5] = tested on: common horsetail (Equisetum arvense); experiment: Test Example 5: foliar treatment of common horsetail in orchard field, visual growth inhibition rate; conditions: foliar treatment at height 15 to 20 cm, 23rd day after treatment
Excerpt: as §1, §2, §3, §4
as §6, with “section,” for “section.”, “horsetail (Equisetum arvense)” for “dayflower (Commelina communis L.)”, “15” for “35”, “20” for “40”, “ME formulation” for “a microemulsion (ME formulation)”, “as an active ingredient (the same as in Test Example 3)” for “prepared by a conventional method”
as §7, with “horsetail” for “dayflower”, “5.” for “3.”

SMILES	Growth inhibition rate (%) of large crabgrass, Measured value ([1]; dose 12.5 g/ha)	Growth inhibition rate (%) of large crabgrass, Measured value ([1]; dose 25 g/ha)	Growth inhibition rate (%) of large crabgrass, Measured value ([2]; dose 50 g/ha)	Growth inhibition rate (%) of common dayflower, Measured value ([3]; dose 25 g/ha)	Growth inhibition rate (%) of common dayflower, Measured value ([3]; dose 50 g/ha)	Growth inhibition rate (%) of large crabgrass, Measured value ([4]; dose 25 g/ha)	Growth inhibition rate (%) of large crabgrass, Measured value ([4]; dose 50 g/ha)	Growth inhibition rate (%) of large crabgrass, Measured value ([4]; dose 100 g/ha)	Growth inhibition rate (%) of common horsetail, Measured value ([5]; dose 25 g/ha)	Growth inhibition rate (%) of common horsetail, Measured value ([5]; dose 50 g/ha)	Growth inhibition rate (%) of common horsetail, Measured value ([5]; dose 100 g/ha)	Growth inhibition rate (%) of common horsetail, Measured value ([5]; dose 150 g/ha)	inhibition at 20 g/ha ([1]; Digitaria, dose 20 g/ha, read-out: Growth inhibition rate (%) of large crabgrass, Measured value)	inhibition at 20 g/ha ([2]; Digitaria sanguinalis, dose 20 g/ha, read-out: Growth inhibition rate (%) of large crabgrass, Measured value)	inhibition at 20 g/ha ([3]; Commelina communis, dose 20 g/ha, read-out: Growth inhibition rate (%) of common dayflower, Measured value)	inhibition at 40 g/ha ([3]; Commelina communis, dose 40 g/ha, read-out: Growth inhibition rate (%) of common dayflower, Measured value)	inhibition at 40 g/ha ([4]; Digitaria sanguinalis, dose 40 g/ha, read-out: Growth inhibition rate (%) of large crabgrass, Measured value)	inhibition at 20 g/ha ([5]; Equisetum arvense, dose 20 g/ha, read-out: Growth inhibition rate (%) of common horsetail, Measured value)	inhibition at 40 g/ha ([5]; Equisetum arvense, dose 40 g/ha, read-out: Growth inhibition rate (%) of common horsetail, Measured value)
COC(=O)CCNC(=O)C(C)Sc1cc(-n2c(=O)cc(C(F)(F)F)n(C)c2=O)c(F)cc1Cl (racemic) [Tiafenacil, methyl 3-((2RS)-2-{2-chloro-4-fluoro-5-[1,2,3,6-tetrahydro-3-methyl-2,6-dioxo-4-(trifluoromethyl)pyrimidin-1(6H)-yl]phenylthio}propionamido]propionate]	20%	30%	65%	50%	60%	5%	5%	8%	63%	63%	68%	55%	–	–	–	–	–	–	–
COc1cc(OC)nc(NC(=O)NS(=O)(=O)c2ncccc2C(F)(F)F)n1 [Flazasulfuron, 1-(4,6-dimethoxypyrimidin-2-yl)-3-(3-trifluoromethyl-2-pyridylsulfonyl)urea]	–	–	–	–	–	–	–	–	–	–	–	–	40%	60%	45%	40%	33%	55%	53%
